“And” between values parts separate entries of the source, which are not always exact repeats. Identical values can stand only once. Results filed as inconclusive are left out. The source made the active and inactive calls.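 The calls were made as follows: active = falling signal with fitted half-maximal potency no higher than twice the top valid tested dose; inconclusive = poor fit quality, or flat fit spanning -70% to -30%; inactive = potency over limit, rising signal, or flat fit inside 30%.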
Test system: Cryptococcus neoformans growth, Alamar Blue, 24 h
Assay: fungal growth arrest, C. neoformans – Alamar Blue, cherry-picks, dose response (AID 686998)

SMILES	IC50
Cc1cccc(NC(=S)NN(Cc2ccccc2)c2ccccc2)c1C	11.9 µM
Cc1noc(C)c1NC(=O)N(C)C[C@H]1Oc2ccc(NC(=O)C3CC3)cc2CC(=O)N([C@@H](C)CO)C[C@H]1C	> 70 µM (inactive)
CNC[C@@H]1OCCCC[C@@H](C)Oc2ccc(NC(=O)NC(C)C)cc2C(=O)N([C@@H](C)CO)C[C@H]1C	> 70 µM (inactive)
COc1ccc(NC(=O)CN2CCN(S(=O)(=O)c3ccc(C(C)C)cc3)CC2)cc1OC	43.7 µM
O=C(CN(c1ccccc1)S(=O)(=O)c1ccccc1)Nc1ccc(F)cc1	40.8 µM
CCCC(=O)N1CCC1(C)C(=O)Nc1cc(C)ccc1C (configuration not stated)	> 70 µM (inactive)
COCC(=O)Nc1ccc2c(c1)C(=O)N(C)C[C@H](OC)[C@@H](C)CN(C(=O)c1ccccc1)[C@@H](C)CO2	> 70 µM (inactive)
COc1ccc(C(=O)NC(=S)Nc2ccccc2N2CCCCC2)cc1[N+](=O)[O-]	1.49 µM
COC(=O)C1=C(C)N(Cc2ccc(F)cc2)C(=S)NC1c1ccc(F)cc1 (configuration not stated)	22.7 µM
O=C(NC(=S)Nc1ccccc1N1CCOCC1)c1ccccc1F	20.9 µM
Cc1cc(C(=O)Nc2cccc3c2O[C@@H](CN(C)S(=O)(=O)c2ccccc2)[C@@H](C)CN([C@@H](C)CO)C3=O)n(C)n1	61.2 µM
COc1ccc(CN(C)C[C@@H]2Oc3ccc(NS(C)(=O)=O)cc3CC(=O)N([C@H](C)CO)C[C@H]2C)cc1	48.6 µM
CC[C@H](C)[C@@H]1NC(=O)CNC(=O)c2csc(n2)[C@H](C(C)(C)O)OC(=O)C(C)(C)[C@H](CCCC(C)(Cl)Cl)OC(=O)c2csc1n2	2.16 µM
CCN1C(=S)N[C@@H](c2cccc(F)c2)C(C(=O)OC)=C1C	> 70 µM (inactive)
O=C(NC(=S)NCC1COc2ccccc2O1)c1ccccc1 (configuration not stated)	11 µM
COC(=O)C1=C(C)N(CC(C)C)C(=S)NC1c1ccc(Cl)cc1 (configuration not stated)	9 µM and 18 µM
Cc1ccc(C(=O)NC(=S)Nc2ccccc2N2CCCC2)cc1[N+](=O)[O-]	0.463 µM
C[C@H](CO)N1C[C@H](C)[C@@H](CN(C)C(=O)Nc2ccc3c(c2)OCO3)Oc2ccc(NS(=O)(=O)c3cccs3)cc2C1=O	64.4 µM
COC(=O)C1=C(C)N(Cc2ccc(Br)cc2)C(=S)NC1c1cccc(Cl)c1 (configuration not stated)	5.98 µM
CCCC[C@@H]1CNC(=S)N1CCc1cccc(F)c1	1.29 µM
COC(=O)C1=C(C)N(Cc2ccc(Cl)cc2)C(=S)NC1c1ccc(F)cc1 (configuration not stated)	14.8 µM and 20.9 µM
CCC(C)c1ccc(NC(=S)N2CCN(c3ccccn3)CC2)cc1 (configuration not stated)	17.5 µM
Cc1ccc2c(C)c(C(=O)N3CCN(Cc4ccccn4)CC3)oc2c1C	67.4 µM

SMILES	IC50
COC(=O)C1=C(C)N(Cc2ccccc2)C(=O)N[C@H]1c1cccc(F)c1	53.8 µM
O=C(NC(=S)Nc1ccc(Br)cc1)C1CCC1	15.8 µM
C[C@H]1CN([C@@H](C)CO)C(=O)Cc2cc(NC(=O)C3CC3)ccc2O[C@@H]1CN(C)C(=O)Nc1cccc2ccccc12	53.6 µM
C[C@H](CO)N1C[C@H](C)[C@H](CN(C)CC2CCCCC2)Oc2c(NS(C)(=O)=O)cccc2C1=O	56.4 µM
C[C@H](CO)N1C[C@H](C)[C@H](CN(C)Cc2ccccc2F)Oc2cc(C3=CCCC3)ccc2S1(=O)=O	36.3 µM
CCc1nc(N2CCCCC2C)c2oc3ccccc3c2n1 (configuration not stated)	17.6 µM
C[C@@H]1CN([C@H](C)CO)C(=O)Cc2cc(NC(=O)NC3CCCCC3)ccc2O[C@@H]1CN(C)Cc1ccccc1	> 70 µM (inactive)
CC(C)COc1ccc(CNC(=S)NCc2ccccc2)cc1	5.43 µM
Fc1ccccc1NC(=S)NCCc1cccc(Cl)c1	16 µM
C[C@H]1CN([C@@H](C)CO)C(=O)c2cc(-c3ccccc3)cnc2O[C@@H]1CN(C)C(=O)c1ccccn1	42.3 µM
CCC(=O)Nc1ccc2c(c1)OC[C@H](C)N(C(=O)c1ccc(F)cc1)C[C@@H](C)[C@@H](OC)CN(C)C2=O	48.2 µM
COC(=O)C1=C(C)N(CC(C)C)C(=S)NC1c1ccc(F)cc1 (configuration not stated)	20.3 µM
CCOc1ccc(CNC(=S)NCc2ccc(OCC)cc2)cc1	8.87 µM
Cc1cc(Cl)ccc1NC(=S)NCc1ccc(F)cc1	15.5 µM
O=C(C1CCOCC1)N1CC[C@@H]2[C@@H](CO)Nc3ccc(Br)cc3[C@@H]21	> 70 µM (inactive)
COC(=O)C1=C(C)N(Cc2ccc(Cl)cc2)C(=S)NC1c1ccc(OC)cc1 (configuration not stated)	22.6 µM
Cc1ccc(S(=O)(=O)N(C)C[C@H]2Oc3c(cccc3N(C)C)C(=O)N([C@@H](C)CO)C[C@H]2C)cc1	> 70 µM (inactive)
COCC#Cc1cnc2c(c1)C(=O)N([C@@H](C)CO)C[C@H](C)[C@H](CN(C)C(=O)Nc1ccc(OC)cc1)O2	> 70 µM (inactive)
O=C(C1CCOCC1)N1C[C@H]2[C@@H](c3ccccc31)[C@@H](CO)N2Cc1ccccc1Cl	1.88 µM
O=C(CN1CCOCC1)N[C@@H]1CC[C@@H](CCNC(=O)C2CCC2)O[C@@H]1CO	43.7 µM
COC(=O)C1=C(C)N(Cc2ccc(F)cc2)C(=S)NC1c1cccc(F)c1 (configuration not stated)	22.1 µM
Cc1c(C(=O)NC(=S)Nc2ccc(N3CCOCC3)cc2)cccc1[N+](=O)[O-]	34.7 µM
Fc1ccccc1CNC(=S)NCc1ccc(Cl)cc1	12.8 µM

SMILES	IC50
COC(=O)C1=C(C)N(Cc2ccc(Cl)cc2)C(=S)NC1c1cccc(F)c1 (configuration not stated)	20.4 µM
COC(=O)C1=C(C)N(Cc2ccc(F)cc2)C(=S)NC1c1cccc(Br)c1 (configuration not stated)	6.82 µM
O=C(C[C@H]1CC[C@@H]2[C@H](COC[C@H](O)CN2CC2CCOCC2)O1)NCc1ccc(Cl)cc1	70 µM
Cc1noc(C)c1NC(=O)N(C)C[C@H]1OCCCC[C@@H](C)Oc2ccc(NC(=O)NC(C)C)cc2C(=O)N([C@H](C)CO)C[C@H]1C	> 70 µM (inactive)
COc1cccc(C(=O)NC(=S)Nc2ccccc2N2CCOCC2)c1	21.2 µM
CCOC(=O)c1c(-c2ccc(-c3ccccc3)cc2)csc1NC(=O)CNCCN(C)C	15 µM
C[C@@H]1CN([C@@H](C)CO)C(=O)c2cc(-c3cncnc3)cnc2O[C@H]1CN(C)C(=O)CN1CCOCC1	42.4 µM
O=C(C[C@@H]1CC[C@@H]2[C@H](COC[C@@H](O)CN2C(=O)Nc2ccc(Cl)cc2)O1)NC1Cc2ccccc2C1	6.79 µM
COc1cc(CO)cc(I)c1O[C@H]1C=C(C(=O)NCCO)C[C@@H](N(CC2CCCCC2)C(=O)c2cc3ccccc3oc2=O)[C@@H]1O	0.479 µM
CCC(C)(C(=O)Nc1ccccc1C)N(C(=O)CNC(C)=O)c1ccccc1C (configuration not stated)	< 0.26 µM
CCOc1ccc(C(=O)NC(=S)Nc2ccccc2N2CCCCC2)cc1[N+](=O)[O-]	3.11 µM
CCC(=O)N(C)C[C@@H]1Oc2cc(C#CC(C)(C)O)ccc2S(=O)(=O)N([C@@H](C)CO)C[C@H]1C	28.7 µM
CCC(=O)N1[C@H](CN(C)C(C)=O)[C@@H](c2ccc(C3=CCCCC3)cc2)[C@@H]1CO	40.4 µM
CO[C@@H]1CN(C)C(=O)c2cc(NC(=O)C3CCOCC3)ccc2OC[C@H](C)NC[C@@H]1C	67.4 µM
CC(C)CC#Cc1ccc2c(c1)O[C@H](CN(C)C(=O)C1CCC1)[C@@H](C)CN([C@@H](C)CO)S2(=O)=O	43.5 µM
CCC(=O)Nc1ccc2c(c1)C(=O)N(C)C[C@H](OC)[C@@H](C)CN[C@H](C)CO2	> 70 µM (inactive)
Cc1cc(C)c(NC(=O)CN2CCCCCC2)c(C)c1	0.858 µM
COc1cccc(NC(=S)NC(=O)Cc2ccc(Cl)cc2)c1	5.24 µM
O=C(Nc1ccc(N2CCOCC2)cc1N1CCOCC1)c1cccc([N+](=O)[O-])c1	67 µM
COC(=O)C1=C(C)N(Cc2ccc(Cl)cc2)C(=S)NC1c1cccc(Cl)c1 (configuration not stated)	15.1 µM
COc1ccc(CN(C)C[C@H]2Oc3ccc(NS(C)(=O)=O)cc3CC(=O)N([C@@H](C)CO)C[C@H]2C)cc1	39.9 µM
CC(C)NC(=O)Nc1ccc2c(c1)C(=O)N([C@H](C)CO)C[C@H](C)[C@H](CN(C)Cc1ccncc1)OCCCC[C@H](C)O2	54.6 µM
COC(=O)C1=C(C)N(Cc2ccc(Br)cc2)C(=S)NC1c1cccc(Br)c1 (configuration not stated)	6.53 µM

SMILES	IC50
C[C@H](NC(=O)C[C@H]1CC[C@@H](NC(=O)Cc2ccccn2)[C@@H](CO)O1)c1ccccc1	47.2 µM
COC(=O)C1=C(C)N(Cc2ccc(Cl)cc2)C(=S)NC1c1cccc(OC)c1 (configuration not stated)	6.55 µM and 8.91 µM
COc1ccc(CN(C)C[C@@H]2Oc3ccc(NC(=O)C4CC4)cc3C(=O)N([C@@H](C)CO)C[C@H]2C)cc1	43.2 µM
CO[C@@H]1CN(C)C(=O)c2ccc(NC(C)=O)cc2OC[C@@H](C)N(C(=O)Cc2cccnc2)C[C@H]1C	> 60 µM (inactive)
COC(=O)C1=C(C)N(Cc2ccccc2)C(=S)N[C@H]1c1ccc(Br)cc1	4.51 µM
CC(C)NC(=O)N(C)C[C@@H]1Oc2c(NC(=O)C3CCCCC3)cccc2C(=O)N([C@@H](C)CO)C[C@@H]1C	8.12 µM
O=C(COc1ccc2c(c1)CCC2)NCc1ccc(Cl)cc1	34.2 µM
CCCCNC(=S)N/N=C/c1ccc(C#N)cc1	2.73 µM
COC(=O)C1=C(C)N(CC(C)C)C(=S)NC1c1ccc(-c2ccccc2)cc1 (configuration not stated)	3.78 µM and 3.99 µM
Cc1ccc(C2CCN(C(=S)NC3CCCCC3)C2)cc1 (configuration not stated)	9.63 µM
C[C@H](NC(=O)C[C@@H]1C=C[C@H](NC(=O)CN2CCOCC2)[C@H](CO)O1)c1ccccc1	44.8 µM
COC(=O)C1=C(C)N(CC(C)C)C(=S)NC1c1cccc(F)c1 (configuration not stated)	23.8 µM and 46.8 µM
Cc1c(Cl)cccc1NC(=S)NCCc1ccc(Cl)cc1	5.38 µM
COc1ccc(NC(=S)NCc2ccccc2Cl)c(OC)c1	43.4 µM
CCCCN1C(=S)NC[C@@H]1Cc1ccccc1	20.9 µM
C/C=C/c1ccc([C@@H]2[C@H]3CN(C(=O)Nc4ccc(OC)cc4)CCCCN3[C@H]2CO)cc1	> 70 µM (inactive)
CC(C)c1ccc(OCC(=O)NC(C)c2ccccc2)cc1 (configuration not stated)	49.5 µM
O=C(CSc1ncnc2c1cnn2-c1cccc(Cl)c1)NCC1CCCO1 (configuration not stated)	39.1 µM
C[C@H]1CN([C@@H](C)CO)C(=O)c2cc(C#CC3(O)CCCC3)cnc2O[C@@H]1CN(C)Cc1cccnc1	> 70 µM (inactive)
Cc1cccc(-c2ccc([C@@H]3[C@@H](CO)N4CCCCN(S(=O)(=O)c5ccccc5C)C[C@@H]34)cc2)c1	2.62 µM
CNC[C@@H]1Oc2ccc(NS(=O)(=O)c3ccc(Cl)cc3)cc2C(=O)N([C@H](C)CO)C[C@H]1C	46.4 µM
COc1cc2c(C(=O)N(C)c3cc(Cl)ccc3OC)cn(C)c(=O)c2cc1OC	0.383 µM
CC(C)NC(=O)Nc1ccc2c(c1)CC(=O)N([C@H](C)CO)C[C@H](C)[C@@H](CN(C)C(=O)Nc1ccc3c(c1)OCO3)O2	> 70 µM (inactive)
